The values that follow come from PubChem BioAssay AID328 (DTP/NCI, 2004).

SMILES strings stand for the structures. “And” between values parts separate entries of the source, which are not always exact repeats. Equal entries are not always repeated. Toxic doses and inconclusive results are not listed.

In the experiment the test system is BDF1 mice, P388 leukemia ip, median survival T/C. The experiment is described as follows: NCI In Vivo Anticancer Drug Screen. Data for tumor model P388 Leukemia (intraperitoneal) in B6D2F1 (BDF1) mice. Particulars: endpoint: median survival time, higher = longer survival. In short, it runs like this:
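Read-out is survival of treated animals expressed relative to the vehicle group, as a T/C ratio.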

[1] abbreviates: dose: 50.0 mg/kg/injection, schedule: Q01DX009 (ip), vehicle: saline with Tween-80.
Setting [2] is: dose: 100.0 mg/kg/injection, schedule: Q01DX009 (ip), vehicle: saline with Tween-80.
The mark [3] stands for this setting: dose: 200.0 mg/kg/injection, schedule: Q01DX009 (ip), vehicle: saline with Tween-80.
The mark [4] stands for this setting: dose: 25.0 mg/kg/injection, schedule: Q04DX003 (ip), vehicle: saline.
[5] abbreviates: dose: 100.0 mg/kg/injection, schedule: Q01DX005 (ip), vehicle: saline with Tween-80.
Setting [6] is: dose: 200.0 mg/kg/injection, schedule: Q01DX005 (ip), vehicle: saline with Tween-80.

With `CN(N=O)C(=O)N[C@@H](C=O)[C@@H](O)[C@H](O)[C@H](O)CO`, the T/C is 118 % of control (dose: 17.0 mg/kg/injection, schedule: Q01DX009 (ip), vehicle: water); 161 % of control (dose: 39.0 mg/kg/injection, schedule: Q01DX009 (ip), vehicle: water); 154 % of control (dose: 40.0 mg/kg/injection, schedule: Q01DX010 (ip), vehicle: other); 171 % of control (dose: 50.0 mg/kg/injection, schedule: Q01DX009 (ip), vehicle: other); 157 % of control and 181 % of control (dose: 58.0 mg/kg/injection, schedule: Q01DX009 (ip), vehicle: water); 118 % of control (dose: 80.0 mg/kg/injection, schedule: Q01DX010 (ip), vehicle: other). In addition, the T/C runs as follows: (dose: 87.0 mg/kg/injection, schedule: Q01DX009 (ip), vehicle: water) 154 % of control and 170 % of control; (dose: 100.0 mg/kg/injection, schedule: Q04DX002 (ip), vehicle: saline) 109 % of control; (dose: 130.0 mg/kg/injection, schedule: Q01DX009 (ip), vehicle: water) 89 % of control; (dose: 200.0 mg/kg/injection, schedule: Q04DX002 (ip), vehicle: saline) 100 % of control; (dose: 400.0 mg/kg/injection, schedule: Q04DX002 (ip), vehicle: saline) 109 % of control.

For the compound `O=C(O)/C=C/c1ccc(Cl)cc1Cl`, the T/C under setting [1] is 95 % of control, the T/C under setting [2] is 90 % of control and the T/C under setting [3] was 90 % of control.

For `COCCOCCN1CCN(CCCN2c3ccccc3Sc3ccc(C(F)(F)F)cc32)CC1`, the T/C reads like this: (dose: 12.5 mg/kg/injection, schedule: Q04DX003 (ip), vehicle: saline) 112 % of control; under setting [4], 108 % of control.

In the case of `O=C1CN(Cc2ccccc2)CC(=O)N2CCCN12`, the T/C runs as follows: (dose: 50.0 mg/kg/injection, schedule: Q01DX005 (ip), vehicle: saline with Tween-80) 101 % of control; under setting [5], 90 % of control; under setting [6], 92 % of control.

With `O=C1c2ccccc2C(=O)N1CNc1ncccn1`, the T/C (dose: 6.25 mg/kg/injection, schedule: Q01DX005 (ip), vehicle: saline with Tween-80) is 95 % of control; the T/C (dose: 12.5 mg/kg/injection, schedule: Q01DX005 (ip), vehicle: saline with Tween-80) was 98 % of control; the T/C (dose: 25.0 mg/kg/injection, schedule: Q01DX005 (ip), vehicle: saline with Tween-80) is 90 % of control; the T/C under setting [5] was 108 % of control; the T/C under setting [6] is 105 % of control.

Take `O=C(Nc1ccccc1)N(C(=O)C(F)(F)F)c1ccccc1`: the T/C runs as follows: under setting [1], 95 % of control; under setting [2], 92 % of control; under setting [3], 90 % of control.

As for `ClC1=C(Cl)[C@@]2(Cl)[C@H]3[C@H]4C[C@H]([C@@H]5O[C@H]45)[C@H]3[C@@]1(Cl)C2(Cl)Cl`, the T/C is, setting by setting: (dose: 3.12 mg/kg/injection, schedule: Q01DX009 (ip), vehicle: Klucel (hydroxypropylcellulose) (HPC)) 91 % of control; (dose: 6.25 mg/kg/injection, schedule: Q01DX009 (ip), vehicle: Klucel (hydroxypropylcellulose) (HPC)) 87 % of control.

For the compound `NC(=O)c1nnc2cccc(Cl)n12`, the T/C is 112 % of control (dose: 100.0 mg/kg/injection, schedule: Q01DX001 (ip), vehicle: saline with Tween-80); 103 % of control (dose: 200.0 mg/kg/injection, schedule: Q01DX001 (ip), vehicle: saline with Tween-80); 96 % of control (dose: 400.0 mg/kg/injection, schedule: Q01DX001 (ip), vehicle: saline with Tween-80).

As to `Cc1cc(-c2ccccc2)c2ccccc2c1N(CC(=O)O)S(=O)(=O)c1ccccc1`, the T/C is, setting by setting: (dose: 44.0 mg/kg/injection, schedule: Q01DX009 (ip), vehicle: saline with Tween-80) 95 % of control and 105 % of control; (dose: 66.0 mg/kg/injection, schedule: Q01DX009 (ip), vehicle: saline with Tween-80) 110 % of control; under setting [2], 95 % of control and 120 % of control; (dose: 150.0 mg/kg/injection, schedule: Q01DX009 (ip), vehicle: saline with Tween-80) 121 % of control.

In the case of `c1ccc2c(c1)CC1C2ON2CCc3ccccc3C12` (stereo not drawn), the T/C under setting [2] was 91 % of control; the T/C under setting [3] is 97 % of control; the T/C (dose: 400.0 mg/kg/injection, schedule: Q01DX009 (ip), vehicle: saline with Tween-80) was 109 % of control.

With `CN(C)c1ccc(C=O)c(Oc2ccccc2)c1`, the T/C is, setting by setting: (dose: 12.5 mg/kg/injection, schedule: Q04DX003 (ip), vehicle: Klucel (hydroxypropylcellulose) (HPC)) 91 % of control; (dose: 25.0 mg/kg/injection, schedule: Q04DX003 (ip), vehicle: Klucel (hydroxypropylcellulose) (HPC)) 108 % of control; (dose: 50.0 mg/kg/injection, schedule: Q04DX003 (ip), vehicle: Klucel (hydroxypropylcellulose) (HPC)) 91 % of control; (dose: 200.0 mg/kg/injection, schedule: Q04DX003 (ip), vehicle: Klucel (hydroxypropylcellulose) (HPC)) 100 % of control; (dose: 400.0 mg/kg/injection, schedule: Q04DX003 (ip), vehicle: Klucel (hydroxypropylcellulose) (HPC)) 100 % of control.

`NS(=O)(=O)Cc1ccccc1`: the T/C runs as follows: under setting [4], 100 % of control; (dose: 50.0 mg/kg/injection, schedule: Q04DX003 (ip), vehicle: saline) 100 % of control; (dose: 100.0 mg/kg/injection, schedule: Q04DX003 (ip), vehicle: saline) 100 % of control.

Consider `Oc1cc(O)c(CN(CCCl)CCCl)cc1CN(CCCl)CCCl`, for which the T/C (dose: 1.0 mg/kg/injection, schedule: Q01DX009 (ip), vehicle: saline) is 118 % of control; the T/C (dose: 1.5 mg/kg/injection, schedule: Q01DX009 (ip), vehicle: saline) was 118 % of control; the T/C (dose: 2.4 mg/kg/injection, schedule: Q01DX009 (ip), vehicle: saline) is 157 % of control; the T/C (dose: 3.6 mg/kg/injection, schedule: Q01DX009 (ip), vehicle: saline) is 182 % of control; the T/C (dose: 5.4 mg/kg/injection, schedule: Q01DX009 (ip), vehicle: saline) is 166 % of control; the T/C (dose: 5.5 mg/kg/injection, schedule: Q01DX009 (ip), vehicle: saline) was 168 % of control. Further, the T/C is 176 % of control (dose: 8.2 mg/kg/injection, schedule: Q01DX009 (ip), vehicle: saline); 165 % of control and 180 % of control (dose: 8.25 mg/kg/injection, schedule: Q01DX009 (ip), vehicle: saline); 163 % of control (dose: 9.9 mg/kg/injection, schedule: Q04DX003 (ip), vehicle: saline); 220 % of control (dose: 15.0 mg/kg/injection, schedule: Q04DX003 (ip), vehicle: saline); 194 % of control (dose: 16.0 mg/kg/injection, schedule: Q01DX009 (ip), vehicle: saline); 195 % of control and 200 % of control (dose: 18.75 mg/kg/injection, schedule: Q01DX009 (ip), vehicle: saline). In addition, the T/C (dose: 23.0 mg/kg/injection, schedule: Q04DX003 (ip), vehicle: saline) is 160 % of control; the T/C (dose: 25.0 mg/kg/injection, schedule: Q01DX009 (ip), vehicle: saline) was 162 % of control and 202 % of control and 222 % of control; the T/C (dose: 35.0 mg/kg/injection, schedule: Q01DX009 (ip), vehicle: saline) is 185 % of control; the T/C (dose: 35.0 mg/kg/injection, schedule: Q04DX003 (ip), vehicle: saline) was 190 % of control and 200 % of control; the T/C (dose: 50.0 mg/kg/injection, schedule: Q01DX009 (ip), vehicle: saline) was 150 % of control; the T/C (dose: 55.0 mg/kg/injection, schedule: Q04DX003 (ip), vehicle: saline) was 250 % of control and 212 % of control. The T/C by setting is: (dose: 80.0 mg/kg/injection, schedule: Q04DX003 (ip), vehicle: saline) 250 % of control and 208 % of control; (dose: 100.0 mg/kg/injection, schedule: Q01DX009 (ip), vehicle: saline) 86 % of control; (dose: 200.0 mg/kg/injection, schedule: Q01DX009 (ip), vehicle: saline) 177 % of control.
